# What was measured:
# Assay type in all cases: biochemical
# [1] = target: T1, purified recombinant full length PKC theta (Panvera, P2996) (Homo sapiens, UniProt Q04759); assay: Radioactive kinase assay for inhibition of full length (FL) PKCθ; conditions: full length enzyme; radioactive (ATP γ P33) assay; average value
# T1 construct: purified recombinant full length PKC theta (Panvera, P2996); purchased Panvera P2996
# Experimental: (§1) This assay is based on the phosphorylation of a biotinylated substrate by a kinase utilizing radiolabeled ATP (ATP γ P33). The substrate was a biotinylated peptide with a sequence of biotin-FARKGSLRQ-C(O)NH2. The enzyme was purified recombinant active kinase domain of full length PKC theta (amino acids 362-706). The assay buffer was composed of 100 mM Hepes, pH7.5, 2 mM MgCl2, 20 mM β-glycerophosphate and 0.008% TritonX 100. A reaction mixture of ATP, ATP γ P33 (PerkinElmer), DTT, and the enzyme was prepared in the assay buffer and added to a 96-well polypropylene plate. The compound (diluted in DMSO in a separate 96-well polypropylene plate) was added to the reaction mixture and incubated at room temperature. Following the incubation, the peptide substrate was added to the reaction mixture to initiate the enzymatic reaction. The reaction was terminated with the addition of a stop solution (100 mM EDTA, 0.2% TritonX100, and 20 mM NaHPO4) and transferred from the assay plate to a washed streptavidin-coated 96-well scintiplate (PerkinElmer). The scintiplate was incubated at room temperature, washed in PBS with 0.1% TritonX 100, and counted in the 1450 Microbeta Trilux (Wallac, Version 2.60). Counts were recorded for each well as corrected counts per minute (CCPM). The counts were considered corrected because they were adjusted according to a P33 normalization protocol, which corrects for efficiency and background differences between the instrument detectors (software version 4.40.01).
# A Radioactive Kinase Assay for Inhibition of Full Length (FL) PKCθ Inhibitors
# This assay differs from what was described above in that the enzyme used was purified recombinant full length PKC theta (Panvera, P2996).
# [2] = target: T2, purified recombinant active kinase domain of full length PKC theta (amino acids 362-706) (Homo sapiens, UniProt Q04759); assay: Radioactive kinase assay for inhibition of the active kinase domain (KD) of PKCθ; conditions: radioactive (ATP γ P33) assay, average value
# T2 construct: active kinase domain of full length PKC theta (amino acids 362-706)
# Experimental: A Radioactive Kinase Assay for Inhibition of the Active Kinase Domain (KD) of PKCθ
# as §1
# [3] = target: T3, human PKCθ full length enzyme (Homo sapiens, UniProt Q04759); assay: PKCθ IMAP assay; conditions: full length enzyme 1 nM; ATP 6 μM; peptide 100 nM; FP readout; average value
# T3 construct: human PKCθ full length enzyme (Panvera Cat# P2996); purchased Panvera P2996
# Experimental: The materials used include the following: human PKCθ full length enzyme (Panvera Cat# P2996); substrate peptide: 5FAM-RFARKGSLRQKNV-OH (Molecular Devices, RP7032); ATP (Sigma Cat # A2383); DTT (Pierce, 20291); 5× kinase reaction buffer (Molecular Devices, R7209); 5× binding buffer A (Molecular Devices, R7282), 5× binding buffer B (Molecular Devices, R7209); IMAP Beads (Molecular Devices, R7284); and 384-well plates (Corning Costar, 3710).
# The reaction buffer was prepared by diluting the 5× stock reaction buffer and adding DTT to obtain a concentration of 3.0 mM. The binding buffer was prepared by diluting the 5× binding buffer A. A master mix solution was prepared using a 90% dilution of the reaction buffer containing 2× ATP (12 uM) and 2× peptide (200 nm). Compounds were diluted in DMSO to 20× of the maximum concentration for the IC50 measurement. 27 μl of the master mix solution for each IC50 curve was added to the first column in a 384-well plate and 3 μl of 20× compound in DMSO was added to each well. The final concentration of compound was 2× and 10% DMSO. DMSO was added to the rest of the master mix to increase the concentration to 10%. 10 μl of the master mix containing 10% DMSO was added to the rest of the wells on the plate except the 2nd column. 20 μl was transferred from the first column to the 2nd column.
# The compounds were serially diluted in 2:1 ratio starting from the 2nd column. A 2× (2 nM) PKCθ solution was made in the reaction buffer. 10 μl of the PKCθ solution was added to every well to achieve these final concentrations: PKCθ—1 nM; ATP—6 μM; peptide—100 nM; DMSO—5%. Samples were incubated for 25 minutes at room temperature. The binding reagent was prepared by diluting the beads in 1× binding buffer to 800:1. 50 μl of the binding reagent was added to every well and incubated for 20 minutes. FP was measured using Envision2100 (PerkinElmer Life Sciences). Wells with no ATPs and wells with no enzymes were used as controls.
# T2 sequence (Q04759 362-706): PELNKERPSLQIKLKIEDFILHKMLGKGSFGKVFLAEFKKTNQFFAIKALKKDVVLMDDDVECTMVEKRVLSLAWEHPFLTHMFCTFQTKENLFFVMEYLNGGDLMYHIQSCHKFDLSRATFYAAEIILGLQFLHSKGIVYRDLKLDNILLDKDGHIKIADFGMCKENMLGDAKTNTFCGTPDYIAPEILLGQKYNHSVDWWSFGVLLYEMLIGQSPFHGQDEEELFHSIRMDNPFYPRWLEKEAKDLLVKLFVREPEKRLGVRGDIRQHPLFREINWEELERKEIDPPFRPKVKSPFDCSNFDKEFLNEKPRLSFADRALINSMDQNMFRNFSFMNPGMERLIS
# T1 sequence (Q04759 whole entry): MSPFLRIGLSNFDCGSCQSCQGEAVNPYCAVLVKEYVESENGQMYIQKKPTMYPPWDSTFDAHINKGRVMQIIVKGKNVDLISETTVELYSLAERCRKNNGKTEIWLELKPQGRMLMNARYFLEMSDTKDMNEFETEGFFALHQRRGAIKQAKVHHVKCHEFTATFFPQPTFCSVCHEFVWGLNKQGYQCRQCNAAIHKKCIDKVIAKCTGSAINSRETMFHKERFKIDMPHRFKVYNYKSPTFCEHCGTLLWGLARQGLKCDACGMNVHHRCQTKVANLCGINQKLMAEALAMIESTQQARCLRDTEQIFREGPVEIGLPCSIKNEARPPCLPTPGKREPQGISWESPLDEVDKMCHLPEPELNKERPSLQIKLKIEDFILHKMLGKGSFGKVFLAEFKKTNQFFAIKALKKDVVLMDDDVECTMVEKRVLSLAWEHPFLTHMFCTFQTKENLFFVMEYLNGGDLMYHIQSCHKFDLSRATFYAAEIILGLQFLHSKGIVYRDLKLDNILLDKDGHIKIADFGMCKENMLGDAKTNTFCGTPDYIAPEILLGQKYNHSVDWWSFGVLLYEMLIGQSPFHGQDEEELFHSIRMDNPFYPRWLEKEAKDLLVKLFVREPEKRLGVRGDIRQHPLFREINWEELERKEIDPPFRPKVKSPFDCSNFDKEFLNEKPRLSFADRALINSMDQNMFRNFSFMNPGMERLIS
# T3 sequence (Q04759 whole entry): as above
SMILES,IC50 [1] [µM],IC50 [2] [µM],IC50 [3] [µM]
"CCOc1cc(Nc2c(C#N)cncc2-c2ccc(OC)c(OC)c2)c(Cl)cc1Cl [Compound 138, 4-[(2,4-dichloro-5-ethoxyphenyl)amino]-5-(3,4-dimethoxyphenyl)nicotinonitrile]",0.32,,
"COc1ccc(-c2cncc(C#N)c2Nc2cccc(Br)c2)cc1OC [Compound 135, 4-[(3-bromophenyl)amino]-5-(3,4-dimethoxyphenyl)nicotinonitrile]",,5,
"COc1cc(Nc2c(C#N)cncc2-c2cccc(OCCCl)c2)c(Cl)cc1Cl [Compound 150, 5-[3-(2-chloroethoxy)phenyl]-4-[(2,4-dichloro-5-methoxyphenyl)amino]nicotinonitrile]",0.5,,
"COc1ccc(Cl)cc1Nc1c(C#N)cncc1-c1ccc(OC)c(OC)c1 [Compound 116, 4-[(5-chloro-2-methoxyphenyl)amino]-5-(3,4-dimethoxyphenyl)nicotinonitrile]",,3.2,
"COc1ccc(-c2cncc(C#N)c2Nc2cc(Cl)ccc2Cl)cc1OC [Compound 113, 4-[(2,5-dichlorophenyl)amino]-5-(3,4-dimethoxyphenyl)nicotinonitrile]",,3.6,
"COc1ccc(-c2cncc(C#N)c2Nc2cc(OCCO)c(Cl)cc2Cl)cc1OC [Compound 141, 4-{[2,4-dichloro-5-(2-hydroxyethoxy)phenyl]amino}-5-(3,4-dimethoxyphenyl)nicotinonitrile]",0.16,,0.1
"COc1ccc(Nc2c(C#N)cncc2-c2ccc(OC)c(OC)c2)cc1Cl [Compound 111, 4-[(3-chloro-4-methoxyphenyl)amino]-5-(3,4-dimethoxyphenyl)nicotinonitrile]",,1.41,
"CCCOc1cc(Nc2c(C#N)cncc2-c2ccc(OC)c(OC)c2)c(Cl)cc1Cl [Compound 139, 4-[(2,4-dichloro-5-propoxyphenyl)amino]-5-(3,4-dimethoxyphenyl)nicotinonitrile]",8,,
"COc1ccc(Nc2c(C#N)cncc2-c2ccc(OC)c(OC)c2)cc1 [Compound 110, 5-(3,4-dimethoxyphenyl)-4-[(4-methoxyphenyl)amino]nicotinonitrile]",,1.16,
"COc1ccc(-c2cncc(C#N)c2Nc2cc(OC)c(OC)c(OC)c2)cc1OC [Compound 119, 5-(3,4-dimethoxyphenyl)-4-[(3,4,5-trimethoxyphenyl)amino]nicotinonitrile]",,11.7,1.95
"COc1ccc(-c2cncc(C#N)c2Nc2ccc(C)cc2)cc1OC [Compound 118, 5-(3,4-dimethoxyphenyl)-4-[(4-methylphenyl)amino]nicotinonitrile]",,4.44,
"COc1ccc(-c2cncc(C#N)c2Nc2cccc(Cl)c2)cc1OC [Compound 101, 4-[(3-chlorophenyl)amino]-5-(3,4-dimethoxyphenyl)nicotinonitrile]",,6.87,
"COc1ccc(Nc2c(C#N)cncc2-c2ccc(OC)c(OC)c2)c(C)c1 [Compound 114, 5-(3,4-dimethoxyphenyl)-4-[(4-methoxy-2-methylphenyl)amino]nicotinonitrile]",,0.4,
"N#Cc1cncc(-c2ccccc2[N+](=O)[O-])c1Nc1ccc(F)c(Cl)c1 [Compound 146, 4-[(3-chloro-4-fluorophenyl)amino]-5-(2-nitrophenyl)nicotinonitrile]",,3.85,
"COCCOc1ccc(-c2cncc(C#N)c2Nc2cc(OC)c(Cl)cc2Cl)cc1OC [Compound 149, 4-[(2,4-dichloro-5-methoxyphenyl)amino]-5-[3-methoxy-4-(2-methoxyethoxy)phenyl]nicotinonitrile]",7.09,,
"COc1ccc(-c2cncc(C#N)c2Nc2cc(F)ccc2F)cc1OC [Compound 104, 4-[(2,5-difluorophenyl)amino]-5-(3,4-dimethoxyphenyl)nicotinonitrile]",,0.6,
"COc1ccc(-c2cncc(C#N)c2Nc2ccc(Cl)cc2)cc1OC [Compound 108, 4-[(4-chlorophenyl)amino]-5-(3,4-dimethoxyphenyl)nicotinonitrile]",,2.77,
"CCCCOc1cc(Nc2c(C#N)cncc2-c2ccc(OC)c(OC)c2)c(Cl)cc1Cl [Compound 140, 4-[(5-butoxy-2,4-dichlorophenyl)amino]-5-(3,4-dimethoxyphenyl)nicotinonitrile]",9.75,,
"COc1ccc(-c2cncc(C#N)c2Nc2ccc(Cl)cc2Cl)cc1OC [Compound 126, 4-[(2,4-dichlorophenyl)amino]-5-(3,4-dimethoxyphenyl)nicotinonitrile]",,0.34,
"COCCOc1cc(-c2cncc(C#N)c2Nc2cc(OC)c(Cl)cc2Cl)ccc1OC [Compound 148, 4-[(2,4-dichloro-5-methoxyphenyl)amino]-5-[4-methoxy-3-(2-methoxyethoxy)phenyl]nicotinonitrile]",0.52,,
"COc1ccc(Nc2c(C#N)cncc2-c2ccc(OC)c(OC)c2)cc1OC [Compound 105, 5-(3,4-dimethoxyphenyl)-4-[(3,4-dimethoxyphenyl)amino]nicotinonitrile]",,10.6,
"COc1ccc(-c2cncc(C#N)c2Nc2ccc(OCc3cccs3)c(Cl)c2)cc1OC [Compound 123, 4-{[3-chloro-4-(thien-2-ylmethoxy)phenyl]amino}-5-(3,4-dimethoxyphenyl)nicotinonitrile]",,38,
"N#Cc1cncc(-c2cccc([N+](=O)[O-])c2)c1Nc1ccc(OCc2ccccc2)c(Cl)c1 [Compound 142, 4-{[4-(benzyloxy)-3-chlorophenyl]amino}-5-(3-nitrophenyl)nicotinonitrile]",,214,
"COc1ccc(-c2cncc(C#N)c2Nc2ccc(OCc3cccc(C#N)c3)c(Cl)c2)cc1OC [Compound 122, 4-({3-chloro-4-[(3-cyanobenzyl)oxy]phenyl}amino)-5-(3,4-dimethoxyphenyl)nicotinonitrile]",,1040,
"COc1cc(Nc2c(C#N)cncc2-c2cccc(OCCN3CCCC3)c2)c(Cl)cc1Cl [Compound 151, 4-[(2,4-dichloro-5-methoxyphenyl)amino]-5-[3-(2-pyrrolidin-1-ylethoxy)phenyl]nicotinonitrile]",7.1,,
"N#Cc1cncc(-c2cccc([N+](=O)[O-])c2)c1Nc1ccc(F)c(Cl)c1 [Compound 144, 4-[(3-chloro-4-fluorophenyl)amino]-5-(3-nitrophenyl)nicotinonitrile]",,158,
"COc1ccc(-c2cncc(C#N)c2Nc2cccc(OCc3ccccc3)c2)cc1OC [Compound 117, 4-{[3-(benzyloxy)phenyl]amino}-5-(3,4-dimethoxyphenyl)nicotinonitrile]",,13.8,
"COc1ccc(-c2cncc(C#N)c2Nc2ccc(C)cc2C)cc1OC [Compound 109, 5-(3,4-dimethoxyphenyl)-4-[(2,4-dimethylphenyl)amino]nicotinonitrile]",,0.81,
"COc1ccc(-c2cncc(C#N)c2Nc2ccc(Cl)cc2F)cc1OC [Compound 106, 4-[(4-chloro-2-fluorophenyl)amino]-5-(3,4-dimethoxyphenyl)nicotinonitrile]",,0.84,
"COc1ccc(-c2cncc(C#N)c2Nc2ccc(F)c(Cl)c2)cc1OC [Compound 107, 4-[(3-chloro-4-fluorophenyl)amino]-5-(3,4-dimethoxyphenyl)nicotinonitrile]",,2.91,

# From US20070287738A1, “Substituted Cyanopyridines as protein kinase inhibitors” (priority 2006, published 2007)
